From US10080777B2, “Syndecan peptides and polypeptides and uses thereof” (WISCONSIN ALUMNI RESEARCH FOUNDATION, priority 2012, dated 2018)
Entries after “also recorded” stand apart in the source; their conditions may differ. Ends that are not written are not given here.

How the values were obtained:
[1] = tested on: human HaCat keratinocytes or MCF10A mammary epithelial cells; test: Competition of GST-fusion proteins or synthetic peptides in EGF-stimulated scratch wound migration (FIG. 8 summary); assay type: cell-based; conditions: for competitive activity: FIGS. 8A-C
Protocol: FIGS. 8A-C. […] GST-fusion proteins or synthetic peptides were added at concentrations ranging from 0.1 to 30 μM to the culture medium of human HaCat keratinocytes or MCF10A mammary epithelial cells in the presence or absence of 20 ng/ml EGF. The ability of the constructs to inhibit the migration of the cells to close a scratch wound in confluent monolayers was determined and express as the concentration of inhibitor necessary to cause 50% inhibition of cell migration. (FIG. 8A) Competition using recombinant GST-fusion proteins. GST-Sdc4 fusion proteins bearing truncations or mutations were assessed for their competitive activity. […] (FIG. 8B) Schematic representation of the active site in Sdc4. The active site is shown as a juxtamembrane site in the ectodomain of Sdc4. TM is the transmembrane domain and CYTO is the cytoplasmic domain. The sequence of a peptide derived from this site ([…]) (SEQ ID NO: 4) is shown along with its homology across other mammalian Sdc4 species (SEQ ID NO: 12) and its homology to Sdc4 derived from zebrafish (SEQ ID NO: 13), identifying highly conserved amino acids at the extreme N- and C-terminus of the peptide. (FIG. 8C) Competition with synthetic peptides. Peptides were purchased from commercial sources for testing as a putative synstatin inhibitory peptide ([…]). Mutation of isoleucine at position 89 to alanine (I89A), or mutation of amino acids 99-108 to alanine (99-108A) reduce the activity by 10-fold. Truncation of amino acids 126-131 at the C-terminus (4126-131) reduces the activity by at least 100-fold.
Wound healing assay. HaCat or MCF10A cells grown to confluence on 48 well-plates were starved for 6 hr by serum deprivation followed by introduction of a scratch wound in the monolayer using 200 μl pipette tip. […] Images were acquired using a PlanApo 20 (0.75 numerical aperture) objective and a Photometrics CoolSnap ES camera on a Nikon Eclipse TE2000U microscopy system and wound closure quantified.

HaCat keratinocytes = test: EGF-stimulated scratch wound closure (chemotactic migration) of HaCat keratinocytes; assay type: cell-based, human; conditions: EGF 10 ng/ml
[2] = tested on: HaCat human keratinocytes; test: Total cell number, CellTiterGLO assay, HaCat; assay type: cell-based; conditions: 3-30 μM; 4 or 7 days; normal epithelium
Protocol: (§1) FIGS. 9A-F. SSTN treatment of normal (nontransformed) epithelial cells versus carcinoma (transformed) cells. Cells are plated for one day, then treated with either 3-30 μM […] (SSTN-I), 3-30 μM […] (SSTN-E), 3-30 μM SSTNHER2 (SSTN-H) or combinations of the three peptides, each at 10 μM to test their additive effect. […] The treatment times are chosen to reflect only modest effects of the peptides used singly, so that the more pronounced effect of peptides used in combination can still be observed. Treatment for longer times leads to significant cell death observed even with single peptides alone. (FIG. 9A) HaCat human keratinocytes, an example of a normal stratified epithelium, (FIG. 9B) UM-SCC47 cells, a squamous cell carcinoma derived from the tongue of a patient (a stratrified epithelium), (FIG. 9C) SCC25 cells, another squamous cell carcinoma from the tongue of a patient), (FIG. 9D) MCF10A cells, a normal human breast epithelium, (FIG. 9E) MDA-MB-468 cells, a triple-negative (TN) breast carcinoma, and (FIG. 9F) SKBr3 cells, a HER2+ human breast carcinoma. Note that all four carcinomas are inhibited by […], and this is enhanced when […] is combined with the other SSTN peptides, leading to obvious cell death (e.g., the number of cells at the end of the experiment are less than at the beginning).
(§2) Apoptosis assay. […]

MCF10A cells = test: Total cell number, CellTiterGLO assay, MCF10A; assay type: cell-based, human; conditions: 3-30 μM; 4 or 7 days; normal epithelium
Protocol: as §1, §2

UM-SCC47 cells = test: Total cell number, CellTiterGLO assay, UM-SCC47; assay type: cell-based, human; conditions: 3-30 μM; combinations each at 10 μM; 4 or 7 days
Protocol: as §1, §2

SCC25 cells = test: Total cell number, CellTiterGLO assay, SCC25; assay type: cell-based, human; conditions: 3-30 μM; combinations each at 10 μM; 4 or 7 days
Protocol: as §1, §2

MDA-MB-468 cells = test: Total cell number, CellTiterGLO assay, MDA-MB-468; assay type: cell-based, human; conditions: 3-30 μM; combinations each at 10 μM; 4 or 7 days
Protocol: as §1, §2

SKBr3 cells = test: Total cell number, CellTiterGLO assay, SKBr3; assay type: cell-based, human; conditions: 3-30 μM; combinations each at 10 μM; 4 or 7 days
Protocol: as §1, §2

[3] = tested on: MCF10A mammary epithelial cells
Protocol: Migration of human MCF10A mammary epithelial cells in response to EGF (10 ng/ml) is tested in 12 hr scratch wound closure assays.
Wound healing assay. HaCat or MCF10A cells grown to confluence on 48 well-plates were starved for 6 hr by serum deprivation followed by introduction of a scratch wound in the monolayer using 200 μl pipette tip. […] To cause EGF-stimulated chemotactic migration that depends on Sdc4, cells were stimulated with EGF (10 ng/ml). Images were acquired using a PlanApo 20 (0.75 numerical aperture) objective and a Photometrics CoolSnap ES camera on a Nikon Eclipse TE2000U microscopy system and wound closure quantified.

fibroblasts = conditions: McFall et al.; cited from earlier work
[4] = tested on: MDA-MB-468 breast carcinoma; test: MDA-MB-468 breast carcinoma subcutaneous tumor growth in nude mice, Alzet pump delivery; assay type: in vivo, nude (nu/nu) mice; conditions: 400 μM in pump, 0.25 μL/hr systemic, 8 wks, started 2 weeks after implantation
Protocol: (§3) FIG. 10. S4ED blocks MDA-MB-468 breast carcinoma growth in vivo. Human MDA-MB-468 breast carcinoma cells were implanted subcutaneously on the flank of nude (nu/nu) mice and allowed to grow for 2 weeks to form palpable tumors (dotted blue line indicates size after 2 weeks). At that time, systemic delivery (0.25 μL/hr) of 400 μM recombinant GST-S4ED, GST alone or saline alone (no treatment) was initiated by surgical implantation of Alzet pumps on the behind the shoulder blades of the animals for 4 wks, followed by replacement with pumps containing fresh protein for an additional 4 wks. Tumor size was measured with calipers at 2 week intervals. Error bars denote S.D., 10 tumors/treatment group.
(§4) The inventor has tested the entire recombinant S4ED protein (as a GST-S4ED fusion protein) as an inhibitor against one of these carcinoma cells (the MDA-MB-468 cells) during tumor growth in immunocompromised nude (nu/nu) mice.

[5] = Estimated blood concentration during Alzet pump delivery; assay type: in vivo, nude (nu/nu) mice; conditions: 400 μM in the pump
Protocol: as §3, §4

EGFR = target: T1, EGFR (Homo sapiens, UniProt P00533); test: Capture of EGFR from cell lysates by GST-ectodomain on glutathione beads; assay type: binding; conditions: lysates of EGF-stimulated A431 cells / HaCat cell lysates, western blot
T1 construct: endogenous in cells
Protocol: (§5) (FIG. 6A) Mouse syndecan chimeras in which their ectodomains are switched are expressed in HaCat cells, then immunoprecipitated with antibodies specific for the mouse syndecan ectodomains. […] Also note that these complexes assemble only upon EGF treatment.
(§6) Immunoprecipitation. Immunoprecipitations were carried out as described previously (Beauvais et al., 2004; Beauvais et al., 2006). Cells were washed once with washing buffer (50 mM Hepes, 50 mM NaCl and 10 mM EDTA, pH 7.4) and lysed for 20 min on ice in 1% Triton X-100 containing a 1:1000 dilution of protease inhibitor mixture set III (Calbiochem) in washing buffer. Cell debris was removed by centrifugation at 20,000 g for 15 min at 4° C. Lysates or 6×His-tagged β4 cytoplasmic domain (amino acids 1677-1752) were incubated at 4° C. overnight with 100 μl Glutathione Sepharose 4B beads (50% in IP wash buffer), GST-S4CD or GST-S1CD in present or absent of different peptides. Samples were resolved by electrophoresis under reduced conditions on a 15% Laemmli gel, transferred to Immobilon P, and probed with primary antibody followed by an alkaline phosphatase-conjugated secondary antibody. Visualization of immune-reactive bands was performed using ECF reagent (GE Healthcare) and scanned on a Typhoon Trio Variable Mode Imager (GE-Healthcare) in blue fluorescence. […]

HER2 = target: T2, HER2 (Homo sapiens, UniProt P04626); test: Capture of HER2 from cell lysates by GST-ectodomain on glutathione beads; assay type: binding; conditions: lysates of EGF-stimulated A431 cells; western blot
T2 construct: endogenous in cells
Protocol: as §5, §6

α6β4 integrin = target: T3, α6β4 integrin (Homo sapiens, UniProt P16144+P23229); test: Capture of α6β4 integrin from cell lysates by GST-ectodomain on glutathione beads; assay type: binding; conditions: re-probed blot, data not shown
T3 construct: endogenous in cells
Protocol: Immunoprecipitation. Immunoprecipitations were carried out as described previously (Beauvais et al., 2004; Beauvais et al., 2006). Cells were washed once with washing buffer (50 mM Hepes, 50 mM NaCl and 10 mM EDTA, pH 7.4) and lysed for 20 min on ice in 1% Triton X-100 containing a 1:1000 dilution of protease inhibitor mixture set III (Calbiochem) in washing buffer. Cell debris was removed by centrifugation at 20,000 g for 15 min at 4° C. Lysates or 6×His-tagged β4 cytoplasmic domain (amino acids 1677-1752) were incubated at 4° C. overnight with 100 μl Glutathione Sepharose 4B beads (50% in IP wash buffer), GST-S4CD or GST-S1CD in present or absent of different peptides. Samples were resolved by electrophoresis under reduced conditions on a 15% Laemmli gel, transferred to Immobilon P, and probed with primary antibody followed by an alkaline phosphatase-conjugated secondary antibody. Visualization of immune-reactive bands was performed using ECF reagent (GE Healthcare) and scanned on a Typhoon Trio Variable Mode Imager (GE-Healthcare) in blue fluorescence.
The inventor's prior work has shown that Sdc1 contains a site in its extracellular domain to capture the αvβ3 or αvβ5 integrin and the insulin-like growth factor-1 receptor (IGF1-R) (Beauvais et al., 2009; Beauvais & Rapraeger, 2010). […]

T3 sequence (P23229 24-1130): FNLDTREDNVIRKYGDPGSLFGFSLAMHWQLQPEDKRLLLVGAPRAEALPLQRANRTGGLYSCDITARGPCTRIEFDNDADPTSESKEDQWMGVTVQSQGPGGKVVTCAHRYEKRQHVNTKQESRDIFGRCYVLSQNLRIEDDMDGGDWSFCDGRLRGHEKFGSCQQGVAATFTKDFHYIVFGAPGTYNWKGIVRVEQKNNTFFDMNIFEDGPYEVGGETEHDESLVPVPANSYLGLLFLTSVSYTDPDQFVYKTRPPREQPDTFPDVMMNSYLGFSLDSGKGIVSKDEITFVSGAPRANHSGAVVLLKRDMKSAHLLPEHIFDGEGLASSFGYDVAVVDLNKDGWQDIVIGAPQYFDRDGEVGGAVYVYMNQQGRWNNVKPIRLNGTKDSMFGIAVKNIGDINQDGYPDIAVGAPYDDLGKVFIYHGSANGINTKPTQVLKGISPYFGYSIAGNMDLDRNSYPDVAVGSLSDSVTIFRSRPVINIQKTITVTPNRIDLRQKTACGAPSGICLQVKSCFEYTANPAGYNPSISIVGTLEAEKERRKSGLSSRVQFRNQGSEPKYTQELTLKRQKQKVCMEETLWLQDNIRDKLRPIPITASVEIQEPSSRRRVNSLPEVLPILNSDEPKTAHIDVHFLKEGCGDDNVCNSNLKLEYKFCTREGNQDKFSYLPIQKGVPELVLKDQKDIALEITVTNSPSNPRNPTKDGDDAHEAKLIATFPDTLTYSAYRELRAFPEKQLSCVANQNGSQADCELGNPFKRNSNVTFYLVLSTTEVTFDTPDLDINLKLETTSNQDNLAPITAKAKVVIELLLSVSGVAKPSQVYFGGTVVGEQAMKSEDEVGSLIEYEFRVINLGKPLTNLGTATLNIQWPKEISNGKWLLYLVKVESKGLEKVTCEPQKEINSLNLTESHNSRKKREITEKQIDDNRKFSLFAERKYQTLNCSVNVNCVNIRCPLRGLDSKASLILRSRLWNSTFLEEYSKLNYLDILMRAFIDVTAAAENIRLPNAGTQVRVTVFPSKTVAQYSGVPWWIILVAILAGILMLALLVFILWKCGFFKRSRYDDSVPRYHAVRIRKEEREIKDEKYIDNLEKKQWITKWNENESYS
T3 sequence (P23229 942-1130 limits assumed): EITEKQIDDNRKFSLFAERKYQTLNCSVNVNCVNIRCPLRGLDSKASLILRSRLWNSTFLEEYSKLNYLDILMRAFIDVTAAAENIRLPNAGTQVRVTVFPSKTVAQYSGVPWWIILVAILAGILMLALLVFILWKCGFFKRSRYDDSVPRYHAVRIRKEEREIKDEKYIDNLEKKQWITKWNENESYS
T3 sequence (P16144 28-1752 isoform P16144-2 limits assumed): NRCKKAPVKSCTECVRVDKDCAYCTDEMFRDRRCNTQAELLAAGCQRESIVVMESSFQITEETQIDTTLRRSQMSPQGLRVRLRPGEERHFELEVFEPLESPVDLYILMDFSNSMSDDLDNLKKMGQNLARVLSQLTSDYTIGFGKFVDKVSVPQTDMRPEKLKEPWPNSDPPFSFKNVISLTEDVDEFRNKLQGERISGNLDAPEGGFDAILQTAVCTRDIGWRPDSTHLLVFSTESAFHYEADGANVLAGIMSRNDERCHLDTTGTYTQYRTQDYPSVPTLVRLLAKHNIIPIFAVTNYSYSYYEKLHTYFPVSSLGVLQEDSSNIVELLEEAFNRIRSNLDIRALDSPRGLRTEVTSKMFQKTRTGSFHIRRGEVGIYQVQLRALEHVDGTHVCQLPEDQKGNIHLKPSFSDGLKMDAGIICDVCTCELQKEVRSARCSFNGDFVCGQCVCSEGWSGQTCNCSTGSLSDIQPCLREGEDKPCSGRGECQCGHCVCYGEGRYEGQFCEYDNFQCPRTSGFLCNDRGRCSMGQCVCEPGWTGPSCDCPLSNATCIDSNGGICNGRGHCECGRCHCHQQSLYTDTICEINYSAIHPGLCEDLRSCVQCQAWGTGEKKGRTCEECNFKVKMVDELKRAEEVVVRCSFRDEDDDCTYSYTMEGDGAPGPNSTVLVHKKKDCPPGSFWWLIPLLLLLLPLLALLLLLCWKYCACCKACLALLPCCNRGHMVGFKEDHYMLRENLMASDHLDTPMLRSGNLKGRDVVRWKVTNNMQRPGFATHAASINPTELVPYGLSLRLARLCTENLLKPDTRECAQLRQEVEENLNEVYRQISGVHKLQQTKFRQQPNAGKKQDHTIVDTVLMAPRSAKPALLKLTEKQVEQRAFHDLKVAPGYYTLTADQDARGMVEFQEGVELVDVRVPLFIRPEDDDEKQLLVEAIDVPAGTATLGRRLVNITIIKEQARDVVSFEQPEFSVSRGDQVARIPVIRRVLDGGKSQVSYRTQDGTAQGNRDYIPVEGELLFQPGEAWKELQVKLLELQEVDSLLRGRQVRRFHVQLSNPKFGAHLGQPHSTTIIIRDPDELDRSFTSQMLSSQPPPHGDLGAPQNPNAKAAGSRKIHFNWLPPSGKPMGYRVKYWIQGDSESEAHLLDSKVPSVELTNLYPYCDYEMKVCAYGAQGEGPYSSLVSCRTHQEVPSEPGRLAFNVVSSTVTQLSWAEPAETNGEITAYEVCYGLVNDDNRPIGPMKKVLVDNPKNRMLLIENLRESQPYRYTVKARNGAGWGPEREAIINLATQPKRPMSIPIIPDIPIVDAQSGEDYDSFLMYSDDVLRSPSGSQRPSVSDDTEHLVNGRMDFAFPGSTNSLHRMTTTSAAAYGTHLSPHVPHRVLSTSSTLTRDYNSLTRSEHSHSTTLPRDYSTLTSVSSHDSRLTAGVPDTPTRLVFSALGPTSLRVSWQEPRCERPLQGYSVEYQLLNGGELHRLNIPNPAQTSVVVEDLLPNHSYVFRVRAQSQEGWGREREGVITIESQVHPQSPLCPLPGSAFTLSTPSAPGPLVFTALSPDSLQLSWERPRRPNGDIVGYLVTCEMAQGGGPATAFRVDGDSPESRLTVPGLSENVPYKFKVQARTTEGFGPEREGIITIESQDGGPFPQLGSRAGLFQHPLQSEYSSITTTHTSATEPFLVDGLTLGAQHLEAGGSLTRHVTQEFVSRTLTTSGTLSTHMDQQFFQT

4126-131: synthetic peptide with truncation of amino acids 126-131 at the C-terminus (NHIPERAGSGSQVPTEPKKLEENEVIPKRISPVEESEDV)
reduction of competitive activity, synthetic peptide variants versus peptide 87-131 ([1]; 0.1 to 30 μM, 20 ng/ml EGF, FIG. 8C): at least 100 fold

COc1cc(/C=C(\C#N)C(N)=O)cc(CSc2nc3ccccc3s2)c1O [AG825]
effect on EGF-induced migration / wound closure (in words) (HaCat keratinocytes; 10 μM AG825): not inhibited; also recorded: not by the tyrphostin AG825

COc1cc2ncnc(Nc3ccc(F)c(Cl)c3)c2cc1OCCCN1CCOCC1 [Iressa]
effect on EGF-induced migration / wound closure (in words) (HaCat keratinocytes; 1 μM Iressa): does block wound closure; also recorded: blocked

NHIPERAGSGSQVPTEPKKLEENEVIPKRISPVEESEDVSNKVSM
effect on EGF-induced migration / wound closure (in words) (HaCat keratinocytes): blocks
growth or survival (total cell number) [2]: no effect
growth or survival (total cell number) (MCF10A cells): no effect
growth/survival (total cell number) (UM-SCC47 cells): do target growth/survival mechanisms; also recorded: inhibited
growth/survival (total cell number) (SCC25 cells): do target growth/survival mechanisms; also recorded: inhibited
growth/survival (total cell number) (MDA-MB-468 cells): do target growth/survival mechanisms; also recorded: inhibited
growth/survival (total cell number) (SKBr3 cells): do target growth/survival mechanisms; also recorded: inhibited
IC50 ([3]; 12 h): 100 to 300 nM
effect on EGF-stimulated migration/chemotaxis (in words) ([3]; EGF 10 ng/ml, scratch wound closure): blocks

S4ED98-131: truncated Sdc4 ectodomain, amino acids 98-131 (QVPTEPKKLEENEVIPKRISPVEESEDVSNKVSM)
competitive activity [1]: ca. 10%
loss of activity versus S4ED78-131 as competitor for cell adhesion (fibroblasts): 100 fold

S4ED 78-118: truncated Sdc4 ectodomain, amino acids 78-118 (VVHPLVPLDNHIPERAGSGSQVPTEPKKLEENEVIPKRISP)
competitive activity [1]: ca. 10%
activity as competitor for cell adhesion to full-length S4ED (in words) (fibroblasts): completely inactive

B1: GST-S4ED: recombinant Sdc4 ectodomain GST fusion protein (protein)
chain: ESIRETEVIDPQDLLEGRYFSGALPDDEDVVGPGQESDDFELSGSGDLDDLEDSMIGPEVVHPLVPLDNHIPERAGSGSQVPTEPKKLEENEVIPKRISPVEESEDVSNKVSMSSTVQGSNIFERTE
modifications: left off: a dimerising Fc or GST
notes: recombinant Sdc4 ectodomain GST fusion protein
tumor growth [4]: tumor growth leveling off
tumor growth ([4]; listed as S4ED): blocks
estimated concentration in the blood [5]: 2 to 3 µM
capture of EGFR (EGFR): captures
capture of EGFR (EGFR; listed as S4ED): captures only EGFR
capture of HER2 (HER2): captures only EGFR
capture of α6β4 integrin (α6β4 integrin): also captured
block of EGF-stimulated migration ([3]; 10 μM, EGF 10 ng/ml, 12 hr scratch wound closure): 80%
